Measurements published in patent US20230203060A1 (GENFLEET THERAPEUTICS (SHANGHAI) INC., priority 2020, published 2023).

Assays:
[1] = system: A549 cells (KRAS G12S mutant); assay: Cell proliferation inhibition experiment, 3D spheroid, CellTiter-Glo, A549; assay type: cell-based, human; details: Homo sapiens, A549, 120 h, A549 (KRAS G12S mutant) 3D spheroid, 5 days with compound, CellTiter-Glo; read-out: A549 IC50
Outline: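 3D spheroid format; 800 H358 / 400 A549 cells/well, 2% FBS. Cpd 3.16-fold series, 0.1% DMSO, 5 d. Readout CellTiter-Glo luminescence; IR% vs DMSO control and medium blank; 4-parameter IC50.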

[2] = system: phosphorylated ERK downstream of KRAS G12C in MIA PaCa2 cells; assay: Cell p-ERK detection experiment (HTRF) in MIA PaCa2; assay type: cell-based, human; details: Homo sapiens, MIA PaCa-2, 2 h, MIA PaCa2 cells, 2 hours with compound, Advance ERK phospho-T202/Y204 HTRF kit; read-out: p-ERK IC50
Outline: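 Phospho-ERK (T202/Y204) measured by HTRF after 30 min lysis and 4 h antibody incubation in MIA PaCa2 (KRAS G12C) cells, seeded at 2.5E4 per well and treated 2 h with compounds in 3.16-fold steps, final DMSO 0.1%. IC50 from a four-parameter fit of percent inhibition relative to DMSO and blank wells.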

Compound	IC50 [1] [µM]	IC50 [2] [nM]
C=CC(=O)N1CCN2C(=O)c3c(N4C[C@@H](N5CC(OC)C5)CC4(C)C)nc(-c4ccccc4F)c(Cl)c3OC[C@H]2C1 [Z479-1, (R)-8-acryloyl-4-chloro-3-(2-fluorophenyl)-1-((S)-4-(3-methoxyazetidin-1-yl)-2,2-dimethylpyrrolidin-1-yl)-6,6a,7,8,9,10-hexahydro-12H-pyrazino[2,1-c]pyrido[3,4-f][1,4]oxazepin-12-one]		30
C=CC(=O)N1CCN2C(=O)c3c(N4C[C@@H](N(C)CCF)CC4(C)C)nc(-c4ccccc4F)c(Cl)c3OC[C@H]2C1 (single isomer, unassigned) [Z660-1]	3.25	19
C=CC(=O)N1CCN2C(=O)c3c(N4C[C@@H](N(C)C)CC4(C)C)nc(-c4cccc(F)c4F)c(Cl)c3OC[C@H]2C1 [Z473-1, (R)-8-acryloyl-4-chloro-3-(2,3-difluorophenyl)-1-((S)-4-(dimethylamino)-2,2-dimethylpyrrolidin-1-yl)-6,6a,7,8,9,10-hexahydro-12H-pyrazino[2,1-c]pyrido[3,4-f][1,4]oxazepin-12-one]		151
C=CC(=O)N1CCN2C(=O)c3c(N4C[C@H](N5CCN(C)CC5)CC4(C)C)nc(-c4ccccc4F)c(Cl)c3OC[C@H]2C1 (single isomer, unassigned) [Z454-2]	2.66	67
C=CC(=O)N1CCN2C(=O)c3c(N4C[C@@H](N5CCC5)CC4(C)C)nc(-c4ccccc4F)c(Cl)c3OC[C@H]2C1 (single isomer, unassigned) [Z471-1]	2.77	188
C=CC(=O)N1CCN2C(=O)c3c(N4C[C@H](N5CCC5)CC4(C)C)nc(-c4ccccc4F)c(Cl)c3OC[C@H]2C1 (single isomer, unassigned) [Z471-2]		1080
C=CC(=O)N1CCN2C(=O)c3c(N4CC[C@@H](N(C)C)C4(C)C)nc(-c4ccccc4F)c(Cl)c3OC[C@H]2C1 [Z502-1, (6aR)-8-acryloyl-4-chloro-1-(3-(dimethylamino)-2,2-dimethylpyrrolidin-1-yl)-3-(2-fluorophenyl)-6,6a,7,8,9,10-hexahydro-12H-pyrazino[2,1-c]pyrido[3,4-f][1,4]oxazepin-12(6aH)-one]		196
C=CC(=O)N1CCN2C(=O)c3c(N4CCN(C)[C@@H](C)[C@H]4C)nc(-c4ccccc4F)c(Cl)c3OC[C@H]2C1 (single isomer, unassigned) [Z465-1]		137
C=CC(=O)N1CCN2C(=O)c3c(N4C[C@H](N5CCN(C)CC5)C[C@@H]4C)nc(-c4ccccc4F)c(Cl)c3OC[C@H]2C1 [Z470-1]		255
C=CC(=O)N1CCN2C(=O)c3c(N4CC(N(C)C)CC4(C)C)nc(-c4cccc(F)c4F)c(Cl)c3OC[C@H]2C1 (single isomer, unassigned) [Z473-2]		161

More lines, now with the values ahead:

IC50 [1] [µM]	IC50 [2] [nM]	Compound
2.95	397	C=CC(=O)N1CCN2C(=O)c3c(NC(C)(C)C)nc(-c4ccccc4F)c(Cl)c3OC[C@H]2C1 [Z457, (R)-8-acryloyl-1-(tert-butylamino)-4-chloro-3-(2-fluorophenyl)-6,6a,7,8,9,10-hexahydro-12H-pyrazino[2,1-c]pyrido[3,4-f][1,4]oxazepin-12-one]
> 5	62	C=CC(=O)N1CCN2C(=O)c3c(N4CCC[C@@H]4C)nc(-c4c(O)cccc4F)c(Cl)c3OC[C@H]2C1 [Z49, (6aR)-8-acryloyl-1-((S)-2-methylpyrrolidin-1-yl)-4-chloro-3-(2-fluoro-6-hydroxyphenyl)-6,6a,7,8,9,10-hexahydro-12H-pyrazino[2,1-c]pyrido[3,4-f][1,4]oxazepin-12-one]
5.02	24	C=CC(=O)N1CCN2C(=O)c3c(N4CC(N(C)CCO)CC4(C)C)nc(-c4ccccc4F)c(Cl)c3OC[C@H]2C1 (stereo partly drawn) [Z658, (6aR)-8-acryloyl-4-chloro-3-(2-fluorophenyl)-1-(4-((2-hydroxyethyl)(methyl)amino)-2,2-dimethylpyrrolidin-1-yl)-6,6a,7,8,9,10-hexahydro-12H-pyrazino[2,1-c]pyrido[3,4-f][1,4]oxazepin-12-one]
4.53	27	C=CC(=O)N1CCN2C(=O)c3c(N4C[C@@H](N(C)CC(F)(F)F)CC4(C)C)nc(-c4ccccc4F)c(Cl)c3OC[C@H]2C1 (single isomer, unassigned) [Z491]
> 30		C=CC(=O)N1CCN2C(=O)c3c(OC4CCCN(C)C4)nc(-c4c(O)cccc4F)c(Cl)c3OC[C@H]2C1 (stereo partly drawn) [Z43, (6aR)-8-acryloyl-4-chloro-3-(2-fluoro-6-hydroxyphenyl)-1-((1-methylpiperidin-3-yl)oxy)-6,6a,7,8,9,10-hexahydro-12H-pyrazino[2,1-c]pyrido[3,4-f][1,4]oxazepin-12-one]
	11	C=CC(=O)N1CCN2C(=O)c3c(N4CC(N5CCN(C)CC5)CC4(C)C)nc(-c4c(O)cccc4F)c(Cl)c3OC[C@H]2C1 (stereo partly drawn) [Z467, (6aR)-8-acryloyl-4-chloro-1-(2,2-dimethyl-4-(4-methylpiperazin-1-yl)pyrrolidin-1-yl)-3-(2-fluoro-6-hydroxyphenyl)-6,6a,7,8,9,10-hexahydro-12H-pyrazino[2,1-c]pyrido[3,4-f][1,4]oxazepin-12-one]
	61	C=CC(=O)N1CCN2C(=O)c3c(N4CCN(C(=O)CC)C[C@@H]4C)nc(-c4ccccc4F)c(Cl)c3OC[C@H]2C1 [Z477, (R)-8-acryloyl-4-chloro-3-(2-fluorophenyl)-1-((S)-2-methyl-4-propionylpiperazin-1-yl)-6,6a,7,8,9,10-hexahydro-12H-pyrazino[2,1-c]pyrido[3,4-f][1,4]oxazepin-12(6aH)-one]
	523	C=CC(=O)N1CCN2C(=O)c3c(N4C[C@@H](C)N(C)C[C@@H]4C)nc(-c4ccccc4F)c(Cl)c3OC[C@H]2C1 [Z464]
	42	C=CC(=O)N1CCN2C(=O)c3c(N4CCN(C)C[C@@H]4C)nc(-c4c(N)cccc4F)c(Cl)c3OC[C@H]2C1 [Z503, (6aR)-8-acryloyl-3-(2-amino-6-fluorophenyl)-4-chloro-1-((S)-2,4-dimethylpiperazin-1-yl)-6,6a,7,8,9,10-hexahydro-12H-pyrazino[2,1-c]pyrido[3,4-f][1,4]oxazepin-12-one]
	13	C=CC(=O)N1CCN2C(=O)c3c(N4C[C@@H](O)CC4(C)C)nc(-c4c(N)cccc4F)c(F)c3OC[C@H]2C1 [Z481, (6aR)-8-acryloyl-3-(2-amino-6-fluorophenyl)-4-fluoro-1-((S)-4-hydroxy-2,2-dimethylpyrrolidin-1-yl)-6,6a,7,8,9,10-hexahydro-12H-pyrazino[2,1-c]pyrido[3,4-f][1,4]oxazepin-12-one]
> 5		C=CC(=O)N1CCN2C(=O)c3c(N[C@H](C)c4ccccc4)nc(-c4c(O)cccc4F)c(Cl)c3OC[C@H]2C1 [Z28, (6aR)-8-acryloyl-4-chloro-3-(2-fluoro-6-hydroxyphenyl)-1-(((R)-1-phenylethyl)amino)-6,6a,7,8,9,10-hexahydro-12H-pyrazino[2,1-c]pyrido[3,4-f][1,4]oxazepin-12-one]
> 5		C=CC(=O)N1CCN2C(=O)c3c(N4CCC[C@H]4C)nc(-c4c(O)cccc4F)c(Cl)c3OC[C@H]2C1 [Z48, (6aR)-8-acryloyl-1-((R)-2-methylpyrrolidin-1-yl)-4-chloro-3-(2-fluoro-6-hydroxyphenyl)-6,6a,7,8,9,10-hexahydro-12H-pyrazino[2,1-c]pyrido[3,4-f][1,4]oxazepin-12-one]
